“Also recorded” adds a separate entry of the source.
Experiments:
[1] = system: glmS ribozyme; experiment: activity by electrophoretic in-line probing (gel electrophoresis methods); assay type: binding
[2] = system: glmS ribozyme; experiment: high-throughput fluorescence screen with bimolecular glmS ribozyme (fluorescein/cy3-labeled substrate); assay type: biochemical, S. aureus; conditions: for Fl21 h/Flg h: high-throughput fluorescence screen, fluorescence ratio
[3] = molecular target: glmS ribozyme from B. cereus; conditions: read-out: apparent dissociation constant (KD); cited from earlier work
[4] = molecular target: homologous ribozyme from Bacillus subtilis; conditions: Bacillus subtilis glmS ribozyme; read-out: apparent dissociation constant (KD); cited from earlier work
[5] = system: glmS ribozyme from B. cereus; experiment: glmS ribozyme self-cleavage assay (5'-32P-labeled 200-nucleotide construct, PAGE); assay type: biochemical, Bacillus cereus; conditions: for ribozyme activation / self-cleavage (in words): FIG. 2b: 1 mM effector, 30 minutes, FIG. 2c: 100 μM, 50 mM HEPES pH 7.5; for ribozyme self-cleavage activity as fraction of the activity exhibited by GlcN6P: FIG. 2c, each at 100 μM
Protocol: Differences from GlcN6P can be seen by comparing the structures to GlcN6P. b) Yields of ribozyme cleavage assays using a 200-nucleotide glmS RNA construct incubated with GlcN6P (1) or with various compounds as indicated. 5′ ^32P-labeled precursor (Pre) RNAs were incubated for 30 minutes in the presence of 1 mM effector as noted for each lane. […] Rate constants for the remaining compounds are estimated to be less than 0.001 min^−1.
The molecular recognition characteristics of the glmS ribozyme was found by determining the effects of GlcN6P and various GlcN6P analogs on the self-cleavage activity of a 200-nucleotide glmS ribozyme construct from B. cereus (FIG. 1). KD values for each ligand were determined by plotting ribozyme rate constants versus ligand concentrations (Experimental Section). […] The amine group of the ligand is also known to be essential for ribozyme function (Winkler 2004; McCarthy 2005). […] Therefore, a series of analogs were tested (FIG. 2) to probe the importance of structural conformation of GlcN6P and of individual functional groups on the pyranose ring.
The glmS ribozyme from B. cereus (FIG. 1a) was generated by in vitro transcription as described previously, (Roth 2006) 5′-^32P-radiolabeled, (Lim 2006) and purified by PAGE. Rate constants were established using methods and reaction conditions similar to those described previously (Roth 2006) with the exception that reaction mixtures contained 50 mM HEPES buffer (pH 7.5 at 23° C.) in place of Tris-HCl buffer. Ligand concentrations and incubation times used are defined for each assay. Ribozyme activity was established by quantitating the amounts of cleaved and uncleaved RNAs using a Typhoon imager (Amersham Biosciences).

[6] = system: glmS ribozymes; conditions: cited from earlier work

Compound | Activity by electrophoretic in-line probing [1] | Fl21 h/Flg h [2] | ribozyme activation / self-cleavage (in words) [5] | also measured
CC(=O)N[C@H]1C(O)O[C@H](COP(=O)(O)O)[C@@H](O)[C@@H]1O (stereo partly drawn) [AcNGln 6P, N-acetyl-D-glucosamine 6-phosphate] | Weakly | 2.28 |  | 
N[C@H]1C(O)O[C@H](COP(=O)(O)O)[C@@H](O)[C@@H]1O (stereo partly shown) [Compound 1, glucosamine-6-phosphate, reference compound] | Yes | 3.36 |  | Kd [3]: ~200 µM; increase of fluorescence intensity of fluoroscein ([2]; ~160 μM glucosamine-6-phosphate, minimum of 10 hours incubation): ~4 fold; Kd [4]: ~200 µM
N[C@@H](C=O)[C@@H](O)[C@@H](O)[C@H](O)COP(=O)(O)O [Compound 2, 2-amino-2-deoxy-D-galactose 6-phosphate] |  | 1.69 | does not induce activity | 
N[C@@H](CO)[C@@H](O)[C@H](O)[C@H](O)COP(=O)(O)O [Compound 3, 2-amino-2-deoxy-D-glucitol-6-phosphate] | No | 0.80 | no detectable activity | 
NC1C(O)O[C@H](COP(=O)(O)S)C(O)[C@@H]1O (stereo partly drawn) [Compound 4, 2-amino-2-deoxy-D-glucose 6-thiophosphate] | No | 1.11 |  | reduction of the rate constant of ribozyme cleavage compared to 1 [5]: approximately two orders of magnitude
CO[C@@H]1O[C@H](COP(=O)(O)O)[C@@H](O)[C@H](O)[C@H]1N [Compound 5, methyl 2-amino-2-deoxy-β-D-glucose 6-phosphate] | No | 1.02 | precludes analog binding | 
CO[C@H]1O[C@H](COP(=O)(O)O)[C@@H](O)[C@H](O)[C@H]1N [Compound 6, methyl 2-amino-2-deoxy-α-D-glucose 6-phosphate] | No | 1.07 | precludes analog binding | 
NC1O[C@H](COP(=O)(O)O)[C@@H](O)[C@H](O)[C@H]1O (stereo partly shown) [Compound 7, 1-amino-1-deoxyglucose 6-phosphate] | No | 1.00 | does not support ribozyme cleavage; also recorded: lowest amount of cleavage | 
N[C@H]1CO[C@H](COP(=O)(O)O)[C@@H](O)[C@@H]1O [Compound 8, 2-amino-1,5-anhydro-2-deoxyglucitol 6-phosphate] | Yes | 2.52 |  | melting point: 185 to 187 °C (dec.); ribozyme self-cleavage activity as fraction of the activity exhibited by GlcN6P [5]: 1/70
CNC1C(O)O[C@H](COP(=O)(O)O)C(O)[C@@H]1O (stereo partly shown) [Compound 9, 2-methylamino-2-deoxyglucose 6-phosphate] | Yes | 3.49 | only a modest reduction in efficiency compared to GlcN6P | melting point: 185 to 187 °C (dec.)
N[C@H](C=O)[C@@H](O)[C@H](O)[C@H](O)COP(=O)(O)O [Compound 12, 2-amino-2-deoxy-D-mannose 6-phosphate] | Yes | 2.89 |  | ribozyme self-cleavage activity as fraction of the activity exhibited by GlcN6P [5]: 1/35
NC1C(O)O[C@H](COP(=O)(O)O)C(O)[C@H]1O (stereo partly shown) [Compound 13, 2-amino-2-deoxyallose 6-phosphate] |  |  | activity that is similar to GlcN6P | 
N[C@@H]1[C@@H](O)[C@H](O)[C@@H](COP(=O)(O)O)O[C@@H]1O [Gln6P com, reference compound] | Yes | 2.24 |  | 
Cl.N[C@H]1C(O)O[C@H](CO)[C@@H](O)[C@@H]1O (stereo partly drawn) [Gln com, D-(+)-glucosamine hydrochloride, reference compound] | Yes | 1.87 |  | GlcN6P bound by the ribozyme more tightly than glucosamine [6]: > 1000 fold; loss of ligand affinity (in words) ([6]; removal of the phosphate group): an even greater loss of ligand affinity
C[N+](C)(C)C1C(O)O[C@H](COP(=O)(O)O)C(O)[C@@H]1O (stereo partly shown) [Me3N-Gln 6P, 2-(trimethylammonio)-2-deoxyglucose 6-phosphate] |  |  |  | melting point: 185 to 187 °C (dec.)
C[N+](C)(C)[C@@H](C=O)[C@@H](O)[C@H](O)[C@H](O)CO [Me3N-Gln, 2-deoxy-2-(trimethylammonio)-D-glucose] | No | 1.17 |  | 
NCCO [ethanolamine] |  |  |  | ribozyme activation (in words) [6]: orders of magnitude less effective than GlcN6P
N[C@H]1C(O)O[C@H](COS(=O)(=O)O)[C@@H](O)[C@@H]1O (stereo partly shown) [glucosamine-6-sulphate] |  |  |  | concentration needed to induce ribozyme activation to the same extent as GlcN6P, relative to GlcN6P [6]: ~100 fold
O=C[C@H](O)[C@@H](O)[C@H](O)[C@H](O)COP(=O)(O)O [glucose-6-phosphate] |  |  |  | ribozyme activation (in words) [6]: completely fails to trigger ribozyme action
NC(CO)CO [serinol] |  |  |  | ribozyme activation (in words) [6]: orders of magnitude less effective than GlcN6P

— patent publication US20100324123A1, “GLMS RIBOSWITCHES, STRUCTURE-BASED COMPOUND DESIGN WITH GLMS RIBOSWITCHES, AND METHODS AND COMPOSITIONS FOR USE OF AND WITH GLMS RIBOSWITCHES” (Yale University, priority 2006, published 2010)
